Test results reported in patent publication US8618068B2, “Methods and low dose regimens for treating red blood cell disorders” (priority 2009, dated 2013).
“Also recorded” adds a separate entry of the source.

How the values were obtained:
in vivo [1] = test: in vivo; design: species or system Sprague-Dawley rats; settings: rat; for NOAEL at 14 days: Sprague-Dawley
Experimental: […] With respect to the FOB measurements, the effect of DMB appeared to be more pronounced in females than males. […] However, decreased motor activity, reduced rectal temperature, direct limbic effects such as a deficit in visual tactile placing accuracy, ataxia, dragging of the hindlimbs in the open field, and decreased grip strength and neuromotor-neuromuscular deficits were only documented in the female rats at 600 mg/kg. In the male rats, these effects were present only in the animals treated with 1,000 mg/kg.

[2] = Phase 1 single dose clinical study, safety; format: in vivo, human
Experimental: The first clinical study was a phase 1, double-blind, placebo-controlled, single dose study of the tolerability, safety and pharmacokinetics of DMB in 32 healthy volunteers. Healthy, fasting adult volunteers received single oral doses of DMB or placebo capsules at one of four dose levels (2 mg/kg, 5 mg/kg, 10 mg/kg and 20 mg/kg). Six subjects received study drug (24 subjects total) and 2 subjects received placebo at each dose level. The 8 placebo subjects received a capsule containing only the excipients from the capsules containing the active agent. Subjects at the 20 mg/kg also received a second dose of study drug after a defined meal, one week following the fasting dose.
Physical examinations, vital signs and neurologic examinations were normal throughout the study. No signs or symptoms of clinical significance were observed. One subject developed transient mild hypotension after dosing, which was clinically asymptomatic, and the Principal Investigator considered this finding to be of no clinical significance. Postural changes in blood pressure and pulse were not evaluated. There were 3 electrocardiogram abnormalities among patients treated with active study medication and 3 among the placebo subjects, all of which were considered to be of no clinical significance. All laboratory studies, including chemistries, coagulation studies, hematology studies and urinalyses were either normal or of no clinical significance except for one subject in whom a urinary tract infection was diagnosed but not disclosed prior to study test article administration. The data are reported for each cohort including the N of subjects that received placebo or study drug. All events were assessed as mild by the Principal Investigator. The reported AEs are shown by Cohort following Table 10. The only AEs considered possibly or probably related to study medication included upper abdominal pain, which occurred in one subject in the 2 mg/kg treatment group, one subject with dizziness in the placebo treatment group, and one subject with dysphoria in the 10 mg/kg treatment group. No subjects discontinued treatment due to AEs and there were no SAEs reported in this study.

[3] = Dose range-finding embryo/fetal developmental toxicity in rabbits; format: in vivo, New Zealand White rabbits
Experimental: DMB was administered orally by gavage to 4 groups of 8 time-mated female New Zealand White rabbits once daily from gestation Days 7 through 20 at dosage levels of 50, 150, 300 and 600 mg/kg/day. […] All findings at necropsy occurred sporadically in single females, with similar frequencies in the control group and/or in a non dose-related manner and were considered incidental and unrelated to administration of DMB. Mean fetal weight in the 600 mg/kg/day group was 8.6% lower than the control group. Fetal weights in the 50, 150 and 300 mg/kg/day groups and fetal survival and external morphology at all dosage levels were unaffected by test article administration.

Solubility in water = format: physicochemical
[4] = Immunotoxicology weight-of-evidence analysis, repeat dose rat study; format: in vivo, Sprague Dawley rat
Text: (§1) The immunotoxicological potential of DMB has been evaluated by a weight-of-evidence analysis of the data generated in the repeat dose Sprague Dawley rat and Beagle dog studies. In both studies, there were no effects of treatment on WBC levels or lymph node histopathology, which are predictive of potential immunotoxicity.

in vivo [5] = test: in vivo; design: species or system baboon; settings: po
Experimental: Additionally, the pharmacokinetic profile of DMB was evaluated in a female baboon who received an IV dose of 50 mg/kg and single oral doses of 100, 150 and 200 mg/kg. Following IV administration, DMB concentrations peaked at the end of dose administration and decayed in a log-linear fashion with no obvious appearance of a distribution phase and after oral administration, the concentration reached a peak within 2 hours after dosing and subsequently decayed in a log-linear fashion at all three dose levels. There was a secondary DMB peak which occurred at 6 hours after dosing of the 200 mg/kg oral dose (FIG. 4).
Vz/F was consistently smaller as the dose was increased.

[6] = Immunotoxicology weight-of-evidence analysis, repeat dose dog study; format: in vivo, Beagle dog
Text: as §1

fetal hemoglobin (HbF) = test: Phase 2 trial in sickle cell disease patients, HbF, total Hgb, fetal globin mRNA; format: in vivo, human
Experimental: A randomized, blinded dose-ranging Phase 1/2 clinical trial was performed in 24 US and Jamaican adult patients with sickle cell disease (including HbSS or S/β thalassemia). DMB was administered once daily for six week cycles of daily therapy with a 2 week treatment break between two cycles, then followed by a final 4 weeks without treatment. Three dose levels (10, 20, 30 mg/kg/day) were studied sequentially. Four out of 24 subjects were treated with placebo and 21 subjects were evaluable. Seven Patients (5 active/2 placebo) at 10 mg/kg, 6 patients (5 active/1 placebo) at 20 mg/kg, and 9 patients (7 active/1 placebo) at 30 mg/kg were randomized in the study. Patients ranged in age from 14 to 56 with a median age of 31 and were comprised of […]. Patients were followed for hematologic parameters focusing on fetal hemoglobin (HbF). HbF was measured by a Waters Empower 32 HPLC system with a Synchropak CM-300 column.

In the case of CCC(C)(C)C(=O)[O-].[Na+] [DMB, Sodium 2,2-dimethylbutyrate], the NOAEL at 14 days (in vivo [1]; female) is reported as 200 mg/kg/day, the NOAEL at 14 days (in vivo [1]; male) is reported as 600 mg/kg/day and the “FOB effects after two-week drug free period” value (in vivo [1]) is reported as “no residual FOB effects”. For the same molecule, the “Subject incidence of Abdominal pain, upper” value ([2]; DMB N = 24) was 4%, the “Subject incidence of Abdominal tenderness” value ([2]; DMB N = 24) was 4% and the “Subject incidence of Cough” value ([2]; DMB N = 24) was 4%. The “Subject incidence of Diarrhea” value ([2]; DMB N = 24) was 8%, the “Subject incidence of Dizziness” value ([2]; DMB N = 24) was 13% and the “Subject incidence of Dysguesia” value ([2]; DMB N = 24) was 4%. The “Subject incidence of Dysphoria” value ([2]; DMB N = 24) was 4%, the “Subject incidence of Ecchymosis” value ([2]; DMB N = 24) was 4% and the “Subject incidence of Epistaxis” value ([2]; DMB N = 24) was 4%. For the same molecule, the “Subject incidence of Fatigue” value ([2]; DMB N = 24) was 4%, the “Subject incidence of Headache” value ([2]; DMB N = 24) was 29% and the “Subject incidence of Insomnia” value ([2]; DMB N = 24) was 4%. For the same molecule, the “Subject incidence of Myalgia” value ([2]; DMB N = 24) was 4%, the “Subject incidence of Nausea” value ([2]; DMB N = 24) was 8% and the “Subject incidence of Odynophagia” value ([2]; DMB N = 24) was 4%. The “Subject incidence of Palpitations” value ([2]; DMB N = 24) was 4%, the “Subject incidence of Syncope vasovagal” value ([2]; DMB N = 24) was 4% and the “Subject incidence of URI” value ([2]; DMB N = 24) was 8%. The “Subject incidence of Vessel puncture site hematoma” value ([2]; DMB N = 24) was 17%, the “electrocardiogram abnormalities among patients treated with active study medication” value ([2]; considered of no clinical significance) was 3 and the SAEs reported ([2]; single doses 2 to 20 mg/kg) was “no SAEs”. For the same molecule, the “clinically significant adverse events” value ([2]; single doses 2 to 20 mg/kg) was “no clinically significant adverse events; also recorded: no significant AEs”, the “maternal body weight gains and food consumption” value ([3]; 300 mg/kg/day) was “Reduced mean maternal body weight gains and corresponding reduced mean food consumption” and the “Mean fetal weight lower than the control group” value ([3]; 600 mg/kg/day) was 8.6%. The “acceptability of dosage for a definitive embryo/fetal development study” value ([3]; 600 mg/kg/day, maternal and embryo/fetal toxicity) was “considered unacceptable”, the “maternal or fetal test article-related effects” value ([3]; 50 and 150 mg/kg/day) was “no maternal or fetal test article-related effects” and the maternal macroscopic findings ([3]; any dosage level) was “No remarkable maternal macroscopic findings”. The “fetal weights (50, 150, 300 mg/kg/day), fetal survival and external morphology (all dosage levels)” value ([3]; rabbit, in vivo) was “unaffected”, the solubility (Solubility in water) was over 500 mg/mL and the “effects on WBC levels or lymph node histopathology” value [4] was “no effects”. The half-life (in vivo [5]; female, monkey) was 2.89 to 6.92 h, the bioavailability (in vivo [5]; female, monkey, 100 mg/kg) was 71.8% and the Tmax (in vivo [5]; female, monkey, 200 mg/kg) was 1.5 to 2 h. The “CL/F at 200 mg/kg relative to the lower doses” value (in vivo [5]; 200 mg/kg) was “about ¼”, the “effects on WBC levels or lymph node histopathology” value [6] was “no effects” and the “responding subjects in whom lactate dehydrogenase (LDH) declined” value (fetal hemoglobin (HbF); 30 mg/kg doses) was 4 of 5. For the same molecule, the “dose level with the largest increase in HbF” value (fetal hemoglobin (HbF); Day 97) was 30 mg/kg, the “dose level with the largest increase in total Hgb” value (fetal hemoglobin (HbF); Day 97) was 30 mg/kg and the “change in percent HbF at Day 97” value (fetal hemoglobin (HbF); all 3 DMB dose groups, compared to a decrease in placebo) was “median increases”. The “change in absolute HbF at Day 97” value (fetal hemoglobin (HbF); all three DMB dose groups) was “Median increases”, the “change in total Hgb at Day 97” value (fetal hemoglobin (HbF); all three DMB dose groups, compared to a decrease in placebo) was “median increases” and the “percentage of F-cells and percentage of fetal hemoglobin” value (fetal hemoglobin (HbF); in some instances (FIG. 22, 10 mg/kg)) was “increased throughout the treatment period”.
